# From ChEMBL document CHEMBL4411307, “N,N'-diaryl-bishydrazones in a biphenyl platform: Broad spectrum antifungal agents” (Eur J Med Chem, 2019)
# The source made the active and inactive calls. No cut-off for these calls is given here.
# Legend:
# [1] = Hemolytic activity in mouse RBC at 62.5 ug/ml after 1 hr relative to control; assay type: ADME, cell-based, Erythrocyte; conditions: red blood cells (erythrocytes), read-out: Activity
# [2] = Selectivity index, ratio of CC50 for human A549 cells to MIC for Candida parapsilosis ATCC 22019; assay type: toxicity; conditions: read-out: Selectivity Index
# [3] = Selectivity index, ratio of CC50 for human A549 cells to MIC for Candida glabrata ATCC 2001; assay type: toxicity; conditions: read-out: Selectivity Index
# [4] = Hemolytic activity in mouse RBC at […] after 1 hr relative to control; assay type: ADME, cell-based, Erythrocyte; conditions: red blood cells (erythrocytes), read-out: Activity; note: tested at 0.48 µg/mL
# [5] = Selectivity index, ratio of CC50 for human A549 cells to MIC for fluconazole/ITC-susceptible Candida albicans ATCC MYA-2310; assay type: toxicity; conditions: read-out: Selectivity Index
# Staphylococcus aureus = assay: Antibacterial activity against methicillin-resistant Staphylococcus aureus; assay type: functional, organism-based
# Candida albicans [6] = assay: Antifungal activity against fluconazole/ITC-resistant Candida albicans ATCC 90819 measured after 48 hrs by CLSI M27-A3 protocol based method; assay type: functional; conditions: ATCC 90819, 48 h
# Pichia kudriavzevii = assay: Antifungal activity against Candida krusei ATCC 6258 measured after 48 hrs by CLSI M27-A3 protocol based method; assay type: functional; conditions: ATCC 6258, 48 h
# [7] = Selectivity index, ratio of CC50 for human A549 cells to MIC for Aspergillus nidulans ATCC 38163; assay type: toxicity; conditions: read-out: Selectivity Index
# Aspergillus terreus = assay: Antifungal activity against Aspergillus terreus ATCC MYA-3633 measured after 48 hrs by CLSI M38-A2 protocol based method; assay type: functional; conditions: ATCC MYA-3633, 48 h
# BEAS-2B = assay: Cytotoxicity against human BEAS2B cells after 24 hrs by resazurin based assay; assay type: cell-based
# Candida albicans [8] = assay: Antifungal activity against fluconazole/ITC-susceptible Candida albicans ATCC MYA-2876 measured after 48 hrs by CLSI M27-A3 protocol based method; assay type: functional; conditions: ATCC MYA-2876, 48 h
# Enterococcus = assay: Antibacterial activity against vancomycin-resistant Enterococcus; assay type: functional, organism-based
# Candida parapsilosis = assay: Antifungal activity against Candida parapsilosis ATCC 22019 measured after 48 hrs by CLSI M27-A3 protocol based method; assay type: functional; conditions: Lodderomyces parapsilosis, ATCC 22019, 48 h
# Candida albicans [9] = assay: Antifungal activity against fluconazole/ITC-resistant Candida albicans ATCC 10231 measured after 48 hrs by CLSI M27-A3 protocol based method; assay type: functional; conditions: ATCC 10231, 48 h
# Nakaseomyces glabratus = assay: Antifungal activity against Candida glabrata ATCC 2001 measured after 48 hrs by CLSI M27-A3 protocol based method; assay type: functional; conditions: CBS 138, 48 h
# Candida albicans [10] = assay: Antifungal activity against fluconazole/ITC-resistant Candida albicans ATCC 64124 measured after 48 hrs by CLSI M27-A3 protocol based method; assay type: functional; conditions: ATCC 64124, 48 h
# [11] = Selectivity index, ratio of CC50 for human A549 cells to MIC for Candida krusei ATCC 6258; assay type: toxicity; conditions: read-out: Selectivity Index
# [12] = Selectivity index, ratio of CC50 for human A549 cells to MIC for fluconazole/ITC-resistant Candida albicans ATCC 90819; assay type: toxicity; conditions: read-out: Selectivity Index
# Candida albicans [13] = assay: Antifungal activity against fluconazole/ITC-resistant Candida albicans ATCC MYA-1003 measured after 48 hrs by CLSI M27-A3 protocol based method; assay type: functional; conditions: ATCC MYA-1003, 48 h
# [14] = Hemolytic activity in mouse RBC at 31.3 ug/ml after 1 hr relative to control; assay type: ADME, cell-based, Erythrocyte; conditions: red blood cells (erythrocytes), read-out: Activity
# [15] = Hemolytic activity in mouse RBC at 1.95 ug/ml after 1 hr relative to control; assay type: ADME, cell-based, Erythrocyte; conditions: red blood cells (erythrocytes), read-out: Activity
# Aspergillus nidulans = assay: Antifungal activity against Aspergillus nidulans ATCC 38163 measured after 48 hrs by CLSI M38-A2 protocol based method; assay type: functional; conditions: ATCC 38163, 48 h
# [16] = Selectivity index, ratio of CC50 for human A549 cells to MIC for fluconazole/ITC-susceptible Candida albicans ATCC MYA-2876; assay type: toxicity; conditions: read-out: Selectivity Index
# [17] = Hemolytic activity in mouse RBC at 3.9 ug/ml after 1 hr relative to control; assay type: ADME, cell-based, Erythrocyte; conditions: red blood cells (erythrocytes), read-out: Activity
# Candida albicans [18] = assay: Antifungal activity against fluconazole/ITC-resistant Candida albicans ATCC MYA-1237 measured after 48 hrs by CLSI M27-A3 protocol based method; assay type: functional; conditions: ATCC MYA-1237, 48 h
# [19] = Selectivity index, ratio of CC50 for human A549 cells to MIC for Aspergillus terreus ATCC MYA-3633; assay type: toxicity; conditions: read-out: Selectivity Index
# A549 = assay: Cytotoxicity against human A549 cells after 24 hrs by resazurin based assay; assay type: cell-based; conditions: a549, 24 h
# [20] = Selectivity index, ratio of CC50 for human A549 cells to MIC for fluconazole/ITC-resistant Candida albicans ATCC MYA-1003; assay type: toxicity; conditions: read-out: Selectivity Index
# [21] = Selectivity index, ratio of CC50 for human A549 cells to MIC for fluconazole/ITC-resistant Candida albicans ATCC 10231; assay type: toxicity; conditions: read-out: Selectivity Index
# [22] = Hemolytic activity in mouse RBC at 7.8 ug/ml after 1 hr relative to control; assay type: ADME, cell-based, Erythrocyte; conditions: red blood cells (erythrocytes), read-out: Activity
# Listeria monocytogenes = assay: Antibacterial activity against Listeria monocytogenes; assay type: functional, organism-based
# [23] = Hemolytic activity in mouse RBC at […] ug/ml after 1 hr relative to control; assay type: ADME, cell-based, Erythrocyte; conditions: red blood cells (erythrocytes), read-out: Activity
# Aspergillus flavus = assay: Antifungal activity against Aspergillus flavus ATCC MYA-3631 measured after 48 hrs by CLSI M38-A2 protocol based method; assay type: functional; conditions: ATCC MYA-3631, 48 h
# Candida albicans [24] = assay: Antifungal activity against fluconazole/ITC-susceptible Candida albicans ATCC MYA-2310 measured after 48 hrs by CLSI M27-A3 protocol based method; assay type: functional; conditions: ATCC MYA-2310, 48 h
# [25] = Selectivity index, ratio of CC50 for human A549 cells to MIC for fluconazole/ITC-resistant Candida albicans ATCC MYA-1237; assay type: toxicity; conditions: read-out: Selectivity Index
# [26] = Selectivity index, ratio of CC50 for human A549 cells to MIC for fluconazole/ITC-resistant Candida albicans ATCC 64124; assay type: toxicity; conditions: read-out: Selectivity Index
smiles,measurement,setting,value
Fc1cccc(N/N=C/c2ccc(-c3cccc(/C=N/Nc4cccc(F)c4)c3)cc2)c1,"hemolysis at 1 h, 62.5 ug/ml",[1],39.5%
same,selectivity ratio,[2],0.4
same,selectivity ratio,[3],0.4
same,"hemolysis at 1 h, […]",[4],0%
same,selectivity ratio,[5],0.4
same,Activity,Staphylococcus aureus,inactive
same,MIC,Candida albicans [6],15.6 µg/mL
same,MIC,Pichia kudriavzevii,1.95 µg/mL
same,selectivity ratio,[7],1.5
same,MIC,Aspergillus terreus,> 31.3 µg/mL
same,CC50,BEAS-2B,11.8 µg/mL
same,MIC,Candida albicans [8],7.8 µg/mL
same,Activity,Enterococcus,inactive
same,MIC,Candida parapsilosis,31.3 µg/mL
same,MIC,Candida albicans [9],1.95 µg/mL
same,MIC,Nakaseomyces glabratus,> 31.3 µg/mL
same,MIC,Candida albicans [10],> 31.3 µg/mL
same,selectivity ratio,[11],6
same,selectivity ratio,[12],0.8
same,MIC,Candida albicans [13],7.8 µg/mL
same,"hemolysis at 1 h, 31.3 ug/ml",[14],32.6%
same,"hemolysis at 1 h, 1.95 ug/ml",[15],0.6%
same,MIC,Aspergillus nidulans,7.8 µg/mL
same,selectivity ratio,[16],1.5
same,"hemolysis at 1 h, 3.9 ug/ml",[17],2.5%
same,MIC,Candida albicans [18],15.6 µg/mL
same,selectivity ratio,[19],0.4
same,CC50,A549,11.7 µg/mL
same,selectivity ratio,[20],1.5
same,selectivity ratio,[21],6
same,"hemolysis at 1 h, 7.8 ug/ml",[22],7.9%
same,Activity,Listeria monocytogenes,inactive
same,"hemolysis at 1 h, 15.6 ug/ml",[23]; at 15.6 µg/mL,13.9%
same,"hemolysis at 1 h, 0.975 ug/ml",[23],4.6%
same,MIC,Aspergillus flavus,3.9 µg/mL
same,MIC,Candida albicans [24],> 31.3 µg/mL
same,selectivity ratio,[25],0.8
same,selectivity ratio,[26],0.4
